In PubChem BioAssay (NCI):
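1) Cells in 96-well plates. 2) Compound, 48 h, 5 concentrations. 3) Linear interpolation between surrounding doses. 4) Unreached endpoint = highest concentration. Abbreviation: GI50, concentration required for 50% inhibition of growth. TGI marks complete inhibition of growth.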

Assays:
Assay in all cases: inhibition of tumour cell growth, NCI panel, 48 h
[1] = system: RPMI-8226 leukemia
[2] = system: HT29 colon
[3] = system: NCI-H460 lung
[4] = system: SK-MEL-28 melanoma
[5] = system: ACHN renal
[6] = system: RXF 393 renal
[7] = system: SF-268 CNS
[8] = system: NCI/ADR-RES ovarian
[9] = system: MDA-MB-231 breast
[10] = system: DU-145 prostate

Structure (SMILES)	TGI [1]	TGI [2]	TGI [3] [µM]	TGI [4]	TGI [5]	TGI [6]	TGI [7] [µM]	GI50 [8]	TGI [8]	GI50 [1]	GI50 [7] [µM]	GI50 [2]	GI50 [9]	TGI [9]	GI50 [10]	TGI [10]	GI50 [3] [µM]	GI50 [4]	GI50 [5]	GI50 [6]
O=c1[nH]c2cc(Cl)ccc2nc1/C(=N\O)C(O)c1cccc([N+](=O)[O-])c1 (stereo not drawn)	> 100 µM	> 100 µM	> 100	> 100 µM	> 100 µM	> 100 µM														
CN1C(=Nc2ccccc2)SC1=Nc1ccccc1	> 100 µM	> 100 µM	> 100	> 100 µM	> 100 µM		> 100													
c1ccc2c(c1)cc(C1NCCc3[nH]cnc31)c1ccccc12 (stereo not drawn)	> 78.4 µM	> 100 µM	> 53.6	> 65.5 µM	> 61.9 µM	85.6 µM	> 100													
COc1ccc2nc3cccc([N+](=O)[O-])c3c(NCCCCCC(=O)O)c2c1	0.052 µM	0.392 µM	0.806	0.548 µM	0.582 µM		0.701	0.313 µM	2.61 µM	0.0131 µM	0.0755	0.014 µM	0.838 µM	74 µM	0.043 µM	1.02 µM	0.0442	0.159 µM	0.0562 µM	
COc1cc(NC(C)CCCNC2CN3CCC2CC3)c2ncccc2c1 (stereo not drawn)		14 µM	32.3	23.7 µM	29.3 µM	15.4 µM	25.8	24.6 µM	> 100 µM		12.2	3.7 µM	3.58 µM	15.7 µM	16.4 µM	30.2 µM	15.9	11.3 µM	14.7 µM	3.44 µM
OC(c1ccccc1)(c1ccccc1)c1ccncc1	> 100 µM	> 100 µM	> 100	> 100 µM	> 100 µM	> 100 µM	> 100													
COc1cnc2c(c1)C(=O)c1c-2n(CCCn2ccnc2)c(=O)c2cc(F)ccc12	0.248 µM	0.226 µM	0.133	1.3 µM		0.171 µM		0.0193 µM	> 100 µM	< 0.01 µM		0.013 µM	0.35 µM	2.17 µM	< 0.01 µM	1.17 µM	< 0.01	0.191 µM		0.0309 µM
COc1ccc2n[se]nc2c1	> 100 µM	> 100 µM		> 100 µM	> 100 µM	> 100 µM	> 100													
COc1ccc(-c2c[nH]c(C(=O)O)c2-c2cc(OC)c(OC)c(OC)c2)cc1	> 100 µM	> 100 µM	> 100	> 100 µM	> 100 µM	6.77 µM	> 100	3.8 µM	> 100 µM	4.24 µM	> 100	3.29 µM	12.4 µM	> 100 µM	4.27 µM	> 100 µM	3.8	> 100 µM	9.74 µM	2.33 µM
CCN(CC)c1c(C(=O)/C=C/c2ccc(OC)cc2)c(-c2ccccc2)nn(C)c1=O		41.3 µM	35.4	35.7 µM	> 100 µM	25 µM	73.1													
Cc1cc(=O)n(-c2ccccc2C)c(C)n1		> 100 µM	> 100	> 100 µM	> 100 µM	> 100 µM	> 100													
COc1ccc(/C(COc2ccc3c(=O)cc(-c4ccccc4)oc3c2)=N\O)cc1	> 50 µM	> 50 µM	> 50	> 41.9 µM	19 µM	> 50 µM	> 36.8	15.4 µM	> 50 µM	22.3 µM	11.3	25.6 µM	5.82 µM	22.5 µM	11.5 µM	> 47.4 µM	13.3	19.5 µM	9.5 µM	15.8 µM
Clc1ccc(C2SCc3nc4ccccc4n32)c(Cl)c1 (stereo not drawn)	41.1 µM	30.4 µM	34.7	31.6 µM	28.7 µM	29.6 µM	31.1													
CCc1cc(C(=O)OC)cn1C(=N)c1ccc(Cl)cc1	> 100 µM	> 100 µM	> 100	> 100 µM	> 100 µM		> 100													
CN(C)CC/C(=N\Nc1ccc([N+](=O)[O-])cc1)c1ccccc1	30.6 µM	21.2 µM	21.3	25.3 µM	6.81 µM	17.1 µM	27.4													
O=C(O)C(SC(=S)c1ccc(C(=S)SC(C(=O)O)c2ccccc2)cc1)c1ccccc1 (stereo not drawn)	> 100 µM	> 100 µM	> 100	> 100 µM	> 100 µM	> 100 µM	> 100													
O=[N+]([O-])c1cc(C(F)(F)F)cc([N+](=O)[O-])c1CCl	3.49 µM	4.03 µM	21.4	17.9 µM	27.9 µM	5.09 µM	27.2													
CCOc1ccccc1N1C(=O)C(=O)C(c2nc3ccccc3o2)C(=O)C1=O	> 100 µM	> 100 µM		> 100 µM	> 100 µM		> 100													
CCOC(=O)N1CCN(C=S)CC1		> 100 µM	> 100	> 100 µM	> 100 µM	> 100 µM	> 100													
CCOc1ccc2c(c1)[n+]([O-])c(-c1ccc(Cl)cc1)c(N)[n+]2[O-]	> 100 µM	> 100 µM	> 100	> 100 µM	> 100 µM		> 100													
CC(C)C1CC[C@@H](C)C[C@@]1(O)CC(N)=O (stereo partly drawn)	> 100 µM	> 100 µM	> 100	> 100 µM	> 100 µM															
CCC(C)(CC(C)(C)C(=O)NCC(=O)NC(Cc1ccccc1)C(=O)NC(Cc1ccccc1)C(=O)NCC(=O)NC1CC(OC2CC(O)(C(=O)CO)Cc3c(O)c4c(c(O)c32)C(=O)c2c(OC)cccc2C4=O)OC(C)C1O)C(=O)NCC(C)O (stereo not drawn)	> 150 µg/mL	> 150 µg/mL		> 150 µg/mL	> 150 µg/mL	> 150 µg/mL		> 150 µg/mL	> 150 µg/mL	36 µg/mL		91.9 µg/mL	119 µg/mL	> 150 µg/mL	121 µg/mL	> 150 µg/mL		> 150 µg/mL	73.9 µg/mL	> 150 µg/mL

Structure (SMILES)	TGI [1]	TGI [2]	TGI [3] [µM]	TGI [4]	TGI [5]	TGI [6]	TGI [7] [µM]	GI50 [8]	TGI [8]	GI50 [1]	GI50 [7] [µM]	GI50 [2]	GI50 [9]	TGI [9]	GI50 [10]	TGI [10]	GI50 [3] [µM]	GI50 [4]	GI50 [5]	GI50 [6]
CCCCNc1nc(C#N)c(N)s1	> 100 µM	> 100 µM	> 100	> 100 µM	> 100 µM		> 100													
COC(=O)N/N=C(\Cc1ccccc1)CN(C)C	> 100 µM	> 100 µM	> 100	> 100 µM	> 100 µM	> 100 µM	> 100													
Cn1cc(C(=O)NCCC(=N)N)cc1NC(=O)C1=[N+](C)C=C(NC(=O)c2cccc(C(=O)NC3=CC(C(=O)Nc4cc(C(=O)NCCC(=N)N)cn4C)=[N+](C)C3)c2)C1	> 100 µM	> 100 µM	> 100	> 100 µM	> 100 µM	> 100 µM	> 100													
CC(C)(C)n1cc(-c2ccnc(NCCCNS(=O)(=O)c3ccc(C(F)(F)F)cc3)c2)c(-c2cccc(O)c2)n1			3.57	3.25 µM	3.54 µM	2.89 µM		2.07 µM	4.3 µM				2.13 µM	3.98 µM	1.94 µM	3.58 µM	1.86	1.75 µM	1.88 µM	1.46 µM
CCS(CC)(CC)CC1CCCC2=CCC(P(=O)(c3ccccc3)c3ccccc3)CC21 (stereo not drawn)		22.8 µM	24.8	28.4 µM	22.4 µM	23.2 µM	26.1													
Oc1ccccc1/C=C/c1csnn1	> 100 µM	> 100 µM	> 100	> 100 µM	> 100 µM	> 100 µM	> 100													
COc1cc2c(c(OC)c1OC)-c1ccc(SC)c(=O)cc1C(CO)C2 (stereo not drawn)	> 100 µM	0.385 µM			> 100 µM						< 0.01						< 0.01		< 0.01 µM	< 0.01 µM
COc1cc(/C=C2/C(=O)N(C(=O)OCC(C)C)C(Cc3cc(OC)c(OC)c(C)c3OC)C(=O)N2Cc2ccccc2)c(OC)c(C)c1OC (stereo not drawn)	> 100 µM	> 100 µM	> 100	> 100 µM	> 100 µM	> 100 µM	> 100													
COc1ccc(Br)c(N/N=C2\CCCNC2=O)c1	> 100 µM	> 100 µM	> 100	> 100 µM	> 100 µM															
CC(=O)CC(=O)OC1CC(C)CCC1C(C)C (stereo not drawn)	46.1 µM	> 100 µM	> 100	> 100 µM	> 100 µM	> 100 µM	> 100													
COC1CC(OS(=O)(=O)c2ccc([N+](=O)[O-])cc2)C(OC(=O)c2ccccc2)C(C)O1 (stereo not drawn)	> 100 µM	> 100 µM	> 100	> 100 µM	> 100 µM	> 100 µM	> 100													
Cc1ccc(S(=O)(=O)OC2CSS(=O)CC2OS(=O)(=O)c2ccc(C)cc2)cc1 (stereo not drawn)	27.6 µM	87.5 µM	46.4	29 µM	31.3 µM	20.8 µM	30.7													
CCCCOC(=O)C1C2CCC(O2)C1C(=O)OCCCC (stereo not drawn)	> 68.5 µM	> 64.2 µM	> 47.1	> 100 µM	> 100 µM	> 86.8 µM	> 100													
COc1cc2c(cc1C)NC(=O)/C2=C/c1ccccn1	> 100 µM	> 100 µM	> 100	> 100 µM	35.6 µM		24.6	2.42 µM	6.27 µM	3.93 µM	3.28	5.47 µM	2.02 µM	7.96 µM			3.56	10.5 µM	2.48 µM	
COc1cc([N+](=O)[O-])c(OC)cc1-c1nc2sc(Cl)cn2c1/C(N)=N/C(=N)N	20.5 µM	> 100 µM	46.7		> 100 µM	16.9 µM	11.8	61.4 µM	> 100 µM	5.73 µM	4.17	3.02 µM	2.19 µM	8.25 µM	7.2 µM	27.9 µM	16.1		> 56.9 µM	4.3 µM
Oc1c(C(Nc2cccc3cccnc23)c2ccccc2)ccc2cccnc12 (stereo not drawn)	> 100 µM		> 100		> 100 µM		> 100													
C(#Cc1ccccc1C#Cc1cccs1)c1cccs1		> 100 µM	> 100	> 100 µM	> 100 µM	> 100 µM	> 100	25.2 µM	> 100 µM		> 100	23.5 µM	23.4 µM	82.1 µM	> 100 µM	> 100 µM	47.4	> 100 µM	78 µM	23.9 µM
CCOC(=O)NC(=O)c1cn(CCOC(=O)CCCCCCCCC(=O)OCCn2cc(C(=O)NC(=O)OCC)c(=O)[nH]c2=O)c(=O)[nH]c1=O	> 100 µM	> 100 µM	> 100	> 100 µM	> 100 µM	> 100 µM	> 100													
CCC[CH2][Sn]1([CH2]CCC)[O]C(=O)c2cccnc2[O]1	6.34 µM	19.5 µM	26	11.9 µM	5.21 µM	3.82 µM				1.74 µM		5.97 µM					13.3	3.92 µM	2.14 µM	2.02 µM
CN(CCCn1c2c(c3ccccc3c1=O)C(=O)c1ccccc1-2)CCCn1c2c(c3ccccc3c1=O)C(=O)c1ccccc1-2			> 100				> 100	1.05 µM	4.32 µM		1.64						0.242	1.28 µM		
O=C(O)CNC(=O)c1ccc(-c2ccccc2)cc1	> 100 µM		> 100	> 100 µM	> 100 µM	> 100 µM	> 100		> 100 µM					> 100 µM		> 100 µM				
